# Test results from patent US20230365592A1 (Agios Pharmaceuticals, Inc., priority 2022, published 2023).
# Target: T1, human PAH with the R408W mutation (Homo sapiens, UniProt P00439, R408W)
# T1 construct: expressed in transfected cells
# T1 sequence (P00439 1-452 R408W): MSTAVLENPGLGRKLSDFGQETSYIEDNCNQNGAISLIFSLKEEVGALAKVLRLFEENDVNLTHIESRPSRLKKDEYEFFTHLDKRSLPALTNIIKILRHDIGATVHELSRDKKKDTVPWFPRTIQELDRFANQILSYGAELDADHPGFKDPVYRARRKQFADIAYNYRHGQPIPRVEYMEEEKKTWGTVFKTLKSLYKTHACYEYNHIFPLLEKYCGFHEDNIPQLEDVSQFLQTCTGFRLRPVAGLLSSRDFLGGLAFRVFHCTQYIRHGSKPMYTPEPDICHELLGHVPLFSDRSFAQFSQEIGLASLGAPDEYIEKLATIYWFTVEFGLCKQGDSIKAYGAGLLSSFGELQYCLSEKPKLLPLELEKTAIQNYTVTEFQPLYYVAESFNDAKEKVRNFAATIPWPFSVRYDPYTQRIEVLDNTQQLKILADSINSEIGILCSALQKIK
# Test: Cell Based Phenylalanine Flux Assay;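 note: after compound treatment, cells received sepiapterin plus isotope-labelled Phenylalanine for 4 hours, then labelled Tyrosine in the medium was quantified, 10-point 2-fold dilution series run in duplicate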
# Conditions: A375 cells expressing human R408W PAH; 24 hrs compound incubation; 13C-Tyrosine by LC-MS; average where tested multiple times; read-out: AC50
row,SMILES,AC50
1,"O=C(c1nnc(-c2ccc(F)cn2)o1)N1CCc2[nH]cnc2[C@@H]1c1cc2c(F)cccn2n1 [Example 880, (R)-(4-(4-fluoropyrazolo[1,5-a]pyridin-2-yl)-6,7-dihydro-1H-imidazo[4,5-c]pyridin-5(4H)-yl)(5-(5-fluoropyridin-2-yl)-1,3,4-oxadiazol-2-yl)methanone]",> 5000 nM
2,"O=C(c1nnc(-c2ccc(F)cn2)o1)N1CCc2[nH]cnc2[C@H]1c1cc2c(F)cccn2n1 [Example 881, (S)-(4-(4-fluoropyrazolo[1,5-a]pyridin-2-yl)-6,7-dihydro-1H-imidazo[4,5-c]pyridin-5(4H)-yl)(5-(5-fluoropyridin-2-yl)-1,3,4-oxadiazol-2-yl)methanone]",< 500 nM
3,"Cc1cc(-c2nnc(C(=O)N3CCc4[nH]cnc4[C@@H]3c3cc4c(F)cccn4n3)o2)nn1C [Example 882, (R)-(5-(1,5-dimethyl-1H-pyrazol-3-yl)-1,3,4-oxadiazol-2-yl)(4-(4-fluoropyrazolo[1,5-a]pyridin-2-yl)-6,7-dihydro-1H-imidazo[4,5-c]pyridin-5(4H)-yl)methanone]",> 5000 nM
4,"Cn1nccc1C(=O)N1CCc2[nH]cnc2[C@H]1c1cc2c(F)cccn2n1 [Example 884, (S)-(4-(4-fluoropyrazolo[1,5-a]pyridin-2-yl)-6,7-dihydro-1H-imidazo[4,5-c]pyridin-5(4H)-yl)(1-methyl-1H-pyrazol-5-yl)methanone]",500 to 1000 nM
5,"COc1cccn2nc([C@@H]3c4nc[nH]c4CCN3C(=O)c3cc(C(F)F)nn3C)cc12 [Example 886, (S)-(3-(difluoromethyl)-1-methyl-1H-pyrazol-5-yl)(4-(4-methoxypyrazolo[1,5-a]pyridin-2-yl)-6,7-dihydro-1H-imidazo[4,5-c]pyridin-5(4H)-yl)methanone]",< 500 nM
6,"COc1cccn2nc([C@H]3c4nc[nH]c4CCN3C(=O)c3cc(C(F)F)nn3C)cc12 [Example 887, (R)-(3-(difluoromethyl)-1-methyl-1H-pyrazol-5-yl)(4-(4-methoxypyrazolo[1,5-a]pyridin-2-yl)-6,7-dihydro-1H-imidazo[4,5-c]pyridin-5(4H)-yl)methanone]",> 5000 nM
7,"Cn1cncc1-c1nc(C(F)F)c(C(=O)N2CCc3[nH]cnc3[C@@H]2c2cc3c(F)cccn3n2)o1 [Example 888, (R)-(4-(difluoromethyl)-2-(1-methyl-1H-imidazol-5-yl)oxazol-5-yl)(4-(4-fluoropyrazolo[1,5-a]pyridin-2-yl)-6,7-dihydro-1H-imidazo[4,5-c]pyridin-5(4H)-yl)methanone]",> 5000 nM

# Further lines, results first:
row,AC50,SMILES
1,500 to 1000 nM,"Cn1cncc1-c1nc(C(F)F)c(C(=O)N2CCc3[nH]cnc3[C@H]2c2cc3c(F)cccn3n2)o1 [Example 889, (S)-(4-(difluoromethyl)-2-(1-methyl-1H-imidazol-5-yl)oxazol-5-yl)(4-(4-fluoropyrazolo[1,5-a]pyridin-2-yl)-6,7-dihydro-1H-imidazo[4,5-c]pyridin-5(4H)-yl)methanone]"
2,> 5000 nM,"Cc1cccn2nc([C@H]3c4nc[nH]c4CCN3C(=O)c3oc(-c4cncn4C)nc3C(F)F)cc12 [Example 890, (R)-(4-(difluoromethyl)-2-(1-methyl-1H-imidazol-5-yl)oxazol-5-yl)(4-(4-methylpyrazolo[1,5-a]pyridin-2-yl)-6,7-dihydro-1H-imidazo[4,5-c]pyridin-5(4H)-yl)methanone]"
3,< 500 nM,"Cc1cccn2nc([C@@H]3c4nc[nH]c4CCN3C(=O)c3oc(-c4cncn4C)nc3C(F)F)cc12 [Example 891, (S)-(4-(difluoromethyl)-2-(1-methyl-1H-imidazol-5-yl)oxazol-5-yl)(4-(4-methylpyrazolo[1,5-a]pyridin-2-yl)-6,7-dihydro-1H-imidazo[4,5-c]pyridin-5(4H)-yl)methanone]"
4,< 500 nM,"Cc1cc(C(=O)N2CCc3[nH]cnc3[C@H]2c2cc3ccccn3n2)n(C)n1 [Example 892, (S)-(1,3-dimethyl-1H-pyrazol-5-yl)(4-(pyrazolo[1,5-a]pyridin-2-yl)-6,7-dihydro-1H-imidazo[4,5-c]pyridin-5(4H)-yl)methanone]"
